Results as given in US20140309244A1, “NOVEL MICROBIOCIDES” (SYNGENTA PARTICIPATIONS AG, priority 2010, published 2014).

Key:
Pyrenophora teres = Pyrenophora teres / barley / leaf disc preventative (net blotch); type: in vivo; conditions: foliar, barley cv Hasso leaf segments, inoculated two days after application, assessed 5-7 days after application, read-out: control of Pyrenophora teres (disease control compared to untreated)
[1] = tested on: Botryotinia fuckeliana (Botrytis cinerea); assay: Botryotinia fuckeliana (Botrytis cinerea) / liquid culture (gray mould); type: cell-based; conditions: Vogels broth, 96-well plate, 24° C., 3-4 days after application, read-out: control of Botryotinia fuckeliana (inhibition of growth, photometric)
[2] = tested on: Mycosphaerella arachidis (Cercospora arachidicola); assay: Mycosphaerella arachidis (Cercospora arachidicola) / liquid culture (early leaf spot); type: cell-based; conditions: PDB potato dextrose broth, 96-well plate, 24° C., 4-5 days after application, read-out: control of Mycosphaerella arachidis (inhibition of growth, photometric)
[3] = tested on: Mycosphaerella graminicola (Septoria tritici); assay: Mycosphaerella graminicola (Septoria tritici) / liquid culture (Septoria blotch); type: cell-based; conditions: Zymoseptoria tritici, PDB potato dextrose broth, 96-well plate, 24° C., 4-5 days after application, read-out: control of Mycosphaerella graminicola (inhibition of growth, photometric)
Gaeumannomyces graminis = Gaeumannomyces graminis / liquid culture (take-all of cereals); type: cell-based; conditions: liquid culture of mycelial fragments, PDB potato dextrose broth, 96-well plate, 24° C., 4-5 days after application, read-out: control of Gaeumannomyces graminis (inhibition of growth, photometric)
[4] = tested on: Blumeria graminis f. sp. tritici (Erysiphe graminis f. sp. tritici); assay: Blumeria graminis f. sp. tritici (Erysiphe graminis f. sp. tritici) / wheat / leaf disc preventative (powdery mildew on wheat); type: in vivo; conditions: foliar, wheat cv. Kanzler leaf segments, inoculated 1 day after application, assessed 6-8 days after application, read-out: control of Blumeria graminis (percent disease control compared to untreated)
[5] = tested on: Phaeosphaeria nodorum (Septoria nodorum); assay: Phaeosphaeria nodorum (Septoria nodorum) / wheat / leaf disc preventative (glume blotch); type: in vivo; conditions: Parastagonospora nodorum, foliar, wheat cv Kanzler leaf segments, inoculated 2 days after application, assessed 5-7 days after application, read-out: control of Phaeosphaeria nodorum (percent disease control compared to untreated)
[6] = tested on: Glomerella lagenarium (Colletotrichum lagenarium); assay: Glomerella lagenarium (Colletotrichum lagenarium) / liquid culture (anthracnose); type: cell-based; conditions: Colletotrichum orbiculare, PDB potato dextrose broth, 96-well plate, 24° C., 3-4 days after application, read-out: control of Glomerella lagenarium (inhibition of growth, photometric)
[7] = tested on: Puccinia recondita f. sp. tritici; assay: Puccinia recondita f. sp. tritici / wheat / leaf disc curative (brown rust); type: in vivo; conditions: foliar, wheat cv Kanzler leaf segments, applied 1 day after inoculation, assessed 6-8 days after application, read-out: control of Puccinia recondita f. sp. tritici (percent disease control compared to untreated)
Experimental: Puccinia recondita f. sp. tritici/Wheat/Leaf Disc Curative (Brown Rust): Wheat leaf segments cv Kanzler were placed on agar in 24-well plates. The leaf segments were inoculated with a spore suspension of the fungus. The plates were stored in darkness at 19° C. and 75% relative humidity. The formulated test compound diluted in water was applied at an application rate of 200 ppm 1 day after inoculation.

[8] = tested on: Monographella nivalis (Microdochium nivale); assay: Monographella nivalis (Microdochium nivale) / liquid culture (foot rot cereals); type: cell-based; conditions: PDB potato dextrose broth, 96-well plate, 24° C., 4-5 days after application, read-out: control of Monographella nivalis (inhibition of growth, photometric)
Experimental: Monographella nivalis (Microdochium nivale)/Liquid Culture (Foot Rot Cereals): Conidia of the fungus from cryogenic storage were directly mixed into nutrient broth (PDB potato dextrose broth). After placing a DMSO solution of test compound into a 96-well microtiter plate at an application rate of 200 ppm, the nutrient broth containing the fungal spores was added. The test plates were incubated at 24° C. and the inhibition of growth was determined photometrically 4-5 days after application. […].103

CO/N=C(/c1cccc(CCCO/N=C(\C)c2cccc(C)n2)n1)C(C)C (single isomer, unassigned) [P.23A]
≥ 80%: pest or weed control at 200 ppm (Pyrenophora teres) | inhibition at 200 ppm [1] | inhibition at 200 ppm [2] | inhibition at 200 ppm [3] | inhibition at 200 ppm (Gaeumannomyces graminis) | pest or weed control at 200 ppm [4]

CO/N=C(\C)c1cccc(CCCON=C(C)c2ccnc(-c3cccc(C)n3)n2)n1 (single isomer, unassigned) [P.63A]
≥ 80%: pest or weed control at 200 ppm [5] | inhibition at 200 ppm [6] | inhibition at 200 ppm [3]

C#CCO/N=C(\C)c1cccc(CCCO/N=C(\C)c2cccc(C)n2)n1 [P.02]
≥ 80%: pest or weed control at 200 ppm [7] | pest or weed control at 200 ppm [5] | inhibition at 200 ppm [1] | inhibition at 200 ppm [2] | inhibition at 200 ppm [3] | inhibition at 200 ppm (Gaeumannomyces graminis) | inhibition at 200 ppm [8]

C=C(CCO/N=C(\C)c1cccc(C)n1)c1cccc(/C(C)=N/OC)n1 [P.05, (E)-1-(6-{1-methylene-3-[1-(6-methyl-pyridin-2-yl)-eth-(E)-ylideneaminooxy]-propyl}-pyridin-2-yl)-ethanone O-methyl-oxime]
≥ 80%: inhibition at 200 ppm [3] | inhibition at 200 ppm [8]

CO/N=C(\C)c1cccc(C(CCO/N=C(\C)c2cccc(C)n2)=C(Cl)Cl)n1 [P.13]
≥ 80%: pest or weed control at 200 ppm [5] | pest or weed control at 200 ppm (Pyrenophora teres) | inhibition at 200 ppm [2] | inhibition at 200 ppm [3] | inhibition at 200 ppm (Gaeumannomyces graminis)

CO/N=C(\C)c1cccc(CCCO/N=C(\C)c2cccc(-c3cc(C)ccc3C)n2)n1 [P.15]
≥ 80%: pest or weed control at 200 ppm (Pyrenophora teres) | inhibition at 200 ppm [1] | inhibition at 200 ppm [2] | inhibition at 200 ppm [3]

CO/N=C(\C)c1cccc(CCCO/N=C(\C)c2cccc(C3CC3)n2)n1 [P.20]
≥ 80%: pest or weed control at 200 ppm [5] | pest or weed control at 200 ppm (Pyrenophora teres) | inhibition at 200 ppm [1] | inhibition at 200 ppm [2] | inhibition at 200 ppm [3]

CO/N=C(\C)c1cccc(CCCO/N=C/c2nc(C)ccc2O)n1 [P.35]
≥ 80%: inhibition at 200 ppm [1] | inhibition at 200 ppm [2] | inhibition at 200 ppm [3] | inhibition at 200 ppm (Gaeumannomyces graminis) | inhibition at 200 ppm [8]

CO/N=C(\C)c1cccc(CCCO/N=C(\C)c2cc(C#N)ccn2)n1 [P.37]
≥ 80%: inhibition at 200 ppm (Gaeumannomyces graminis)

CO/N=C(\C)c1cccc(CCCO/N=C/c2cccc(C)n2)n1 [P.38]
≥ 80%: inhibition at 200 ppm [1] | inhibition at 200 ppm [2] | inhibition at 200 ppm [3] | inhibition at 200 ppm [8]

CO/N=C(\C)c1cccc(CCCO/N=C(\C)c2nc(C(F)(F)F)ccc2C(=O)OC)n1 [P.46]
≥ 80%: pest or weed control at 200 ppm [5] | inhibition at 200 ppm [1] | inhibition at 200 ppm [2] | inhibition at 200 ppm [3] | inhibition at 200 ppm (Gaeumannomyces graminis)

CO/N=C(\C)c1cccc(CCCO/N=C(\C)c2cccc(C#N)n2)n1 [P.50]
≥ 80%: inhibition at 200 ppm [1] | inhibition at 200 ppm [2] | inhibition at 200 ppm [3]

CO/N=C(\C)c1cccc(CCCO/N=C(\c2ccccc2)c2ccccn2)n1 [P.53]
≥ 80%: inhibition at 200 ppm (Gaeumannomyces graminis)

CC/C(=N\OCCCc1cccc(/C(C)=N/OC)n1)c1ccccn1 [P.54]
≥ 80%: inhibition at 200 ppm (Gaeumannomyces graminis)

CO/N=C(\C)c1cccc(CCCO/N=C2\CCCc3ccc(C)nc32)n1 [P.57]
≥ 80%: pest or weed control at 200 ppm [5] | inhibition at 200 ppm [1] | inhibition at 200 ppm [6] | inhibition at 200 ppm [2] | inhibition at 200 ppm [3] | inhibition at 200 ppm (Gaeumannomyces graminis) | inhibition at 200 ppm [8]

CO/N=C(\C)c1cccc(CCCO/N=C2\CCCc3cnc(-c4ccccc4)nc32)n1 [P.61, 2-Phenyl-6,7-dihydro-5H-quinazolin-8-one O-[3-(6-(1-((E)-methoxyimino)-ethyl)-pyridin-2-yl)-propyl]-oxime]
≥ 80%: pest or weed control at 200 ppm [5] | inhibition at 200 ppm [1] | inhibition at 200 ppm [2] | inhibition at 200 ppm [3] | inhibition at 200 ppm (Gaeumannomyces graminis)

CCOc1cc(OCC)nc(/C(C)=N/OCCCc2cccc(/C(C)=N/OC)n2)n1 [P.67]
≥ 80%: inhibition at 200 ppm [1] | inhibition at 200 ppm [2] | inhibition at 200 ppm [3]

CO/N=C(\C)c1cccc(CCCO/N=C(\C)c2cccc(CCCOCc3ccccc3)n2)n1 [P.75]
≥ 80%: inhibition at 200 ppm [1] | inhibition at 200 ppm [2] | inhibition at 200 ppm [3]

CO/N=C(\C)c1cccc(CCCO/N=C(\C)c2cccc(CCCO)n2)n1 [P.77]
≥ 80%: inhibition at 200 ppm [1] | inhibition at 200 ppm [2] | inhibition at 200 ppm [3]

CO/N=C(\C)c1cccc(CCCO/N=C(\C)c2cccc(C#CCO)n2)n1 [P.78]
≥ 80%: inhibition at 200 ppm [2] | inhibition at 200 ppm [3] | inhibition at 200 ppm [8]

CO/N=C(\C)c1cccc(CCCO/N=C2\CCCc3c2nc2cnccc2c3C)n1 [P.80]
≥ 80%: inhibition at 200 ppm [1] | inhibition at 200 ppm [2] | inhibition at 200 ppm [3] | inhibition at 200 ppm [8]

CO/N=C(\C)c1cccc(CCCO/N=C2\CCCc3c2nc2cc(Cl)ccc2c3C)n1 [P.83]
≥ 80%: pest or weed control at 200 ppm (Pyrenophora teres) | inhibition at 200 ppm [1] | inhibition at 200 ppm [6] | inhibition at 200 ppm [2] | inhibition at 200 ppm [3] | inhibition at 200 ppm (Gaeumannomyces graminis) | pest or weed control at 200 ppm [4]

CO/N=C(\C)c1cccc(CCCO/N=C2\CCCc3c2nc2ccc(Br)cc2c3C)n1 [P.84]
≥ 80%: pest or weed control at 200 ppm [5] | pest or weed control at 200 ppm (Pyrenophora teres) | inhibition at 200 ppm [1] | inhibition at 200 ppm [6] | inhibition at 200 ppm [2] | inhibition at 200 ppm [3] | inhibition at 200 ppm (Gaeumannomyces graminis) | pest or weed control at 200 ppm [4]

CO/N=C(\C)c1cccc(CCCO/N=C2\COCc3c2nc2ccccc2c3C)n1 [P.89]
≥ 80%: inhibition at 200 ppm [1] | inhibition at 200 ppm [2] | inhibition at 200 ppm [3]

CO/N=C(\C)c1cccc(CCCO/N=C2\CCCc3c2nc2c(C)cccc2c3C)n1 [P.90]
≥ 80%: inhibition at 200 ppm [1] | inhibition at 200 ppm [6] | inhibition at 200 ppm [2] | inhibition at 200 ppm [3]

CO/N=C(\C)c1cccc(CCCO/N=C2\CCCc3c2nc2ccccc2c3-c2ccccc2)n1 [P.99]
≥ 80%: inhibition at 200 ppm [1] | inhibition at 200 ppm [6] | inhibition at 200 ppm [2] | inhibition at 200 ppm [3] | inhibition at 200 ppm [8]

CO/N=C(\C)c1cccc(CCCON=C(CC#N)c2ccccn2)n1 [P.105]
≥ 80%: inhibition at 200 ppm (Gaeumannomyces graminis)
